Earlier results in patent US20100136125A1, “METHOD OF TREATING INFLAMMATORY BOWEL DISEASE” (Jacobus Pharmaceutical Company, Inc., priority 2006, published 2010).
Where two headings read alike, the source gives them in different places.

What was measured:
[1] = target: T1, thiopurine methyltransferase (TPMT) (Homo sapiens, UniProt P51580); details: in vitro kinetic studies; read-out: IC50, non-competitive inhibition of TPMT
T1 sequence (P51580 1-245): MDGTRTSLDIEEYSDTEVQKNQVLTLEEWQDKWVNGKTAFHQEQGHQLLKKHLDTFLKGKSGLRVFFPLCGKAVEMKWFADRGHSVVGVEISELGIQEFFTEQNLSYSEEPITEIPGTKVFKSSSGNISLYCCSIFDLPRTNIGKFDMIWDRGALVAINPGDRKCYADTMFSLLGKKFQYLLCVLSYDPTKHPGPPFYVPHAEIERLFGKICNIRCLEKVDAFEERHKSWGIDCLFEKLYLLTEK

[2] = tested on: active left-sided ulcerative colitis; details: 2 gram nightly retention enema, p<0.005 vs placebo
ulcerative colitis = details: topical
[3] = children, 300 mg/kg/day in 5 equal doses
[4] = in vivo
[5] = tested on: distal ulcerative colitis; details: enema 2 g bid, open-label
[6] = tested on: quiescent Crohn's ileocolitis; details: 1.5 g/d slow release, maintenance therapy
[7] = not given; remark: listed apart in the source
Crohn's disease [8] = details: in vivo
Crohn's disease [9] = tested on: Crohn's disease
[10] = dose 4.0 gm PASER, 2.6-2.8 gm salts

Molecule: Nc1cccc(C(=O)O)c1O [3-ASA]
- IC50 [1]: 99 µM

Molecule: Nc1ccc(C(=O)O)c(O)c1 [4-ASA, 4-aminosalicylic acid]
- significant improvement in clinical, sigmoidoscopic and histologic variables after 8 weeks [2]: 83%
- IC50 [1]: 2600 µM
- excreted in the urine (in vivo): ≤ 80%
- half-life of free 4-ASA (renal disease): 30.8 min
- dosage excreted in acetylated form (urine): ≥ 50%
- half-life of free 4-ASA (without renal disease): 26.4 min
- MIC (tuberculosis; bacteriostatic): under 2 μg/ml
- clinical improvement within 2 weeks (ulcerative colitis): 79%
- histologic improvement within 2 weeks (ulcerative colitis): 44%
- sigmoidoscopic improvement within 2 weeks (ulcerative colitis): 78%
- serum level after 4 hours [3]: 2-2.5 mg percent
- serum level of 4-ASA 60 minutes after oral solution [3]: ≤ 120 micrograms/ml
- half-life [4]: 50 min
- participants with complete resolution of symptoms and sigmoidoscopic abnormalities by 8 weeks [5]: 46%
- additional participants experiencing improvement ([5]; 8 weeks): 31%
- relapse rate after one year [6]: 36%

Molecule: Nc1ccc(O)c(C(=O)O)c1 [5-ASA, 5-aminosalicylic acid]
- IC50 [1]: 1240 µM
- anti-tuberculous activity (tuberculosis): no anti-tuberculous activity
- clinical improvement within 2 weeks (ulcerative colitis): 79%
- histologic improvement within 2 weeks (ulcerative colitis): 44%
- sigmoidoscopic improvement within 2 weeks (ulcerative colitis): 78%
- relapse rate after one year [6]: 38%

Molecule: Nc1ccc(C(=O)O)c([O-])c1.Nc1ccc(C(=O)O)c([O-])c1.[Ca+2] [Ca++ PAS]
- AOC0-∞ ([7]; in vivo): 326.83 µg·h/mL
- Cmax ([7]; in vivo): 139.51 µg/mL
- Tmax ([7]; in vivo): 61.2 min

Molecule: Nc1ccc(C(=O)[O-])c(O)c1.[K+] [K+ PAS]
- AOC0-∞ [7, 10]: 313.22 µg·h/mL
- Cmax [7, 10]: 121.09 µg/mL
- Tmax [7, 10]: 66 min

Molecule: Nc1ccc(C(=O)[O-])c(O)c1.[Na+] [Na+ PAS]
- AOC0-∞ ([7]; in vivo): 313.22 µg·h/mL
- Cmax ([7]; in vivo): 155.44 µg/mL
- Tmax ([7]; in vivo): 49.8 min

Molecule: O=C(O)c1cc(/N=N/c2ccc(S(=O)(=O)Nc3ccccn3)cc2)ccc1O [sulfasalazine]
- IC50 [1]: 78 µM

Molecule: Acetyl-para-aminosalicylate [Ac-PAS]
- half-life of the acetylated metabolite (normals): 51 min
- half-life of the acetylated metabolite (uremic patients): 309 min

Molecule: granulocyte-macrophage stimulating factor: granulocyte-macrophage stimulating factor studied in active Crohn's disease
- time by which significant clinical activity is demonstrated (Crohn's disease [8]): ≤ 15 days

Molecule: infliximab: TNF antagonist, chimeric monoclonal antibody cA2 to tumor necrosis factor α
- remission rate (Crohn's disease [9]; at 4 weeks): 33%
- response rate (Crohn's disease [9]; at 4 weeks): 65%
- remission (CDAI<150 and IBDQ>170-190) (Crohn's disease [9]; by two weeks): 27%
- response (decrease in CDAI≧70 points) (Crohn's disease [9]; by two weeks): 61%
